Test results from patent US7655752B2, “TNF-α converting enzyme inhibitory agents and method of using same” (The United States of America as represented by the …, priority 2003, dated 2010).
Ends that are not written are not given here.

What was measured:
[1] = tested on: recombinant human TACE (rhTACE); experiment: TACE-mediated cleavage of rhTNFR2:Fc model substrate (SDS-PAGE, silver staining, Western blot); assay type: biochemical; details: for inhibition of TACE-mediated cleavage of TNFR2:Fc: 80 μM peptide, silver staining
From the text: A model assay system was developed to assess the ability of N-TACE to inhibit TACE enzymatic activity. Recombinant human TACE (rhTACE), as well as the recombinant human TNFR1:Fc (rhTNFR1:Fc) and TNFR2:Fc (rhTNFR2:Fc) fusion proteins were purchased from R & D Systems (Minneapolis, Minn.). Both TNFR1:Fc and TNFR2:Fc are recombinant human chimeric proteins that encode the extracellular receptor domains, fused to a carboxy-terminal 6X-histidine-tagged Fc region of human IgG1 via a linker peptide (IEGRMD)(SEQ ID NO:1). Recombinant human TACE corresponds to the mature form following removal of the prodomain and has an apparent molecular weight of 70 kDa. N-TACE(18-54), which lacked the signal peptide, was synthesized by Sigma-Genosys (The Woodlands, Tex.). N-TACE truncation mutants were also synthesized; an amino-terminal mutant N-TACE(18-29) corresponded to N-TACE amino acids 18-29, a mid-domain mutant N-TACE(30-42) corresponded to N-TACE amino acids 30-42, a carboxy-terminal mutant N-TACE(43-54) corresponded to amino acids 43-54, and an extended mid-domain mutant N-TACE(30-48) corresponded to amino acids 30 to 48.
Chou Fasman analysis was performed using MacVector (Accelrys, Burlington, Mass.). Assays (50 μl) were performed in 50 mM Tris, 25 mM NaCl, pH 8.0 at 30° C. for 30 min. Samples were analyzed by SDS-PAGE using 4%-12% Bis-Tris Nupage gels (Invitrogen, Carlsbad, Calif.) and visualized with the SilverQuest Silver Staining Kit (Invitrogen, Carlsbad, Calif.). For Western blot analysis, samples were separated via SDS-PAGE, electroblotted onto nitrocellulose membranes, and incubated overnight (4° C.) with 200 ng/ml of a murine IgG1 monoclonal antibody directed against the histidine tag (Tetra-His, Qiagen, Valenica, Calif.). The antibody detected the carboxy-terminus of the recombinant human TNFR2:Fc fusion protein. A rabbit polyclonal antibody was also generated against N-TACE(18-54) (Sigma-Genosys, The Woodlands, Tex.) and was utilized for Western blotting at a 1:1000 dilution. Detection was by chemiluminescence using horseradish peroxidase-conjugated secondary antibodies.

[2] = tested on: TNFR2 shedding from U937 cells; experiment: TNFR2 shedding from U937 cells (sandwich ELISA of soluble TNFR2 in supernatants); assay type: cell-based; details: 40 μM, 24 hours
Experimental: (§1) The ability of N-TACE to inhibit TNFR2 shedding was tested in a cell-based system. U937 cells were obtained from ATCC (Manassas, Va.) and maintained in RPMI-1640 medium with 10% fetal bovine serum. For experiments, U937 cells were plated into 6 well plates at a density of 2×10^6 cells/ml. PMA was purchased from Sigma (St. Louis, Mo.). Release of TNFR2 into […] cell culture supernatants over a 24-hour period was assayed utilizing a sandwich ELISA with a sensitivity of 7.8 pg/ml (R & D Systems). Cellular apoptosis and necrosis were measured using the TACS Annexin V-FITC Apoptosis Detection Kit (R & D Systems, Minneapolis, Minn.) and a XL-MCL Flow Cytometer (Becman-Coulter, Miami, Fla.). Statistical analysis was performed by a paired Student's t test with a Bonferroni correction for multiple comparisons and by single factor ANOVA. Differences were considered significant at a P value <0.05.
(§2) The U937 monocytic cells were treated for 24 hours with either N-TACE(18-54) (0.04 to 40 μM), or a peptide corresponding to N-TACE amino acids 18-29 (40 μM). […] In contrast, N-TACE(18-29) had no effect on TNFR2 shedding as compared to cells treated with media alone (186.5±1.8 vs. 184.6±2.2, n=6, P=NS).

U937 cells = experiment: Cellular apoptosis and necrosis (Annexin V binding and propidium iodide uptake, flow cytometry); assay type: cell-based
Experimental: as §1, §2

[3] = 0.5 μM rhTACE, 0.95 μM TNFR2:Fc, 30 min

Compound | inhibition of TACE-mediated cleavage of TNFR2:Fc [1, 3] | other results
CC(C)C[C@H](CC(=O)NO)C(=O)N[C@H](C(=O)N[C@@H](C)C(=O)NCCN)C(C)(C)C [TAPI-2, reference compound] | – | inhibition of TACE-mediated TNFR2 cleavage ([1]; 25 μM, 0.5 μM rhTACE, 0.95 μM TNFR2:Fc, 30 min): completely inhibited
N-TACE(18-29): amino-terminal truncation mutant corresponding to N-TACE amino acids 18-29 (PRPPDDPGFGPH) | none of the N-TACE truncation mutants (80 μM) inhibited | effect on TNFR2 shedding ([2]; compared to media alone): no effect
N-TACE(30-42): mid-domain truncation mutant corresponding to N-TACE amino acids 30-42 (QRLEKLDSLLSDY) | none of the N-TACE truncation mutants (80 μM) inhibited | –
N-TACE(30-48): extended mid-domain mutant, 19-amino acid leucine-rich peptide, amino acids 30 to 48; QRLEKLDSLLSDYDILSLS (listed as Homo sapiens) | inhibited | inhibition of TNFR2 shedding ([2]; compared to cells treated with media alone): about 16%
N-TACE(43-54): carboxy-terminal truncation mutant corresponding to amino acids 43-54 (DILSLSNIQQHS) | none of the N-TACE truncation mutants (80 μM) inhibited | –
N-TACE: 54 amino acid protein: first 54 amino acids of TACE, signal peptide plus amino-terminus of prodomain, SEQ ID NO:3 (MRQSLLFLTSVVPFVLAPRPPDDPGFGPHQRLEKLDSLLSDYDILSLSNIQQHS; listed as Homo sapiens) | – | inhibition of TACE-mediated cleavage of TNFR2:Fc (summary statement) ([1]; concentration not given): shown to inhibit
PRPPDDPGFGPHQRLEKLDSLLSDYDILSLSNIQQHS [N-TACE(18-54)] | – | apoptosis or necrosis as cause of decreased TNFR2 shedding (U937 cells): not a consequence of either apoptosis or necrosis
vasoactive intestinal peptide (HSDAVFTDNYTRLRKQMAVKKYLNSILN) [VIP, irrelevant peptide purchased from Bachem, specificity control, reference compound] | neither α-defensin or VIP inhibited | –
